≈ marks a conversion by molar mass, not a printed value. Like-named read-outs stand apart in the source and are kept apart here.
Columns and labels:
Format in all cases: cell-based
E. coli = experiment: MIC by serial dilution in nutrient agar; settings: Escherichia coli
Klebsiella aerogenes = experiment: MIC by serial dilution in nutrient agar
Serratia marcescens = experiment: MIC by serial dilution in nutrient agar
Citrobacter freundii = experiment: MIC by serial dilution in nutrient agar
Enterobacter aerogenes = experiment: MIC by serial dilution in nutrient agar; settings: Klebsiella aerogenes
E. cloacae = experiment: MIC by serial dilution in nutrient agar; settings: Enterobacter cloacae
Proteus mirabilis = experiment: MIC by serial dilution in nutrient agar
P. morganii = experiment: MIC by serial dilution in nutrient agar
P. vulgaris = experiment: MIC by serial dilution in nutrient agar; settings: Proteus vulgaris
P. rettgeri = experiment: MIC by serial dilution in nutrient agar; settings: Providencia rettgeri
Streptococcus faecalis = experiment: MIC by serial dilution in nutrient agar
[1] = test system: a range of Gram-negative bacteria and Strep. Faecalis; experiment: Microbiological evaluation, comparison of MIC values of the two compounds (Table I); settings: from MIC values of Table I
[2] = E. coli strain JT1, read-out: MIC
[3] = E. coli strain JT39R+, read-out: MIC
[4] = E. coli strain JT56R+, read-out: MIC
[5] = E. coli strain JT68R+, read-out: MIC
[6] = E. coli strain JT103, read-out: MIC
[7] = E. coli strain JT147, read-out: MIC
[8] = E. coli strain JT454C+, read-out: MIC
[9] = E. coli strain JT460C+, read-out: MIC
[10] = Klebsiella aerogenes strain B195R+
[11] = Klebsiella aerogenes strain E70
[12] = Klebsiella aerogenes strain I229
[13] = Klebsiella aerogenes strain I281
[14] = Klebsiella aerogenes strain T312
[15] = Serratia marcescens strain US30
[16] = Serratia marcescens strain US39R+
[17] = Citrobacter freundii strain T745
[18] = Citrobacter freundii strain W18
[19] = Enterobacter aerogenes strain T730
[20] = Enterobacter aerogenes strain T755
[21] = Proteus mirabilis strain H-WF, read-out: MIC
[22] = Morganella morganii, P. morganii strain DU10, read-out: MIC
[23] = Enterococcus faecalis, Streptococcus faecalis strain Weaver, read-out: MIC
[24] = Streptococcus faecalis strain A
[25] = Streptococcus faecalis strain Page

Row | SMILES | MIC (E. coli; [2]) | MIC (E. coli; E. coli strain JT2OR+) | MIC (E. coli; [3]) | MIC (E. coli; [4]) | MIC (E. coli; [5]) | MIC (E. coli; [6]) | MIC (E. coli; [7]) | MIC (E. coli; [8]) | MIC (E. coli; [9]) | MIC (Klebsiella aerogenes; [10]) | MIC (Klebsiella aerogenes; [11]) | MIC (Klebsiella aerogenes; [12]) | MIC (Klebsiella aerogenes; [13]) | MIC (Klebsiella aerogenes; [14]) | MIC (Serratia marcescens; Serratia marcescens strain US1) | MIC (Serratia marcescens; [15]) | MIC (Serratia marcescens; [16]) | MIC (Citrobacter freundii; [17]) | MIC (Citrobacter freundii; [18]) | MIC (Enterobacter aerogenes; [19]) | also measured
1 | COC1(NC(=O)C(C(=O)O)c2ccccc2)C(=O)N2C(C(=O)O)C(C)(C)SC21 (stereo not drawn) [6-methoxy carbenicillin, 6α-methoxy-6β-(2-carboxyphenylacetamido)penicillanic acid, reference compound] | 5 µg/mL (≈ 12.2 µM) | 5 µg/mL (≈ 12.2 µM) | 12.5 µg/mL (≈ 30.6 µM) | 12.5 µg/mL (≈ 30.6 µM) | 12.5 µg/mL (≈ 30.6 µM) | 5 µg/mL (≈ 12.2 µM) | 12.5 µg/mL (≈ 30.6 µM) | 5 µg/mL (≈ 12.2 µM) | 12.5 µg/mL (≈ 30.6 µM) | 25 µg/mL (≈ 61.2 µM) | 5 µg/mL (≈ 12.2 µM) | 12.5 µg/mL (≈ 30.6 µM) | 12.5 µg/mL (≈ 30.6 µM) | 12.5 µg/mL (≈ 30.6 µM) | 5 µg/mL (≈ 12.2 µM) | 12.5 µg/mL (≈ 30.6 µM) | 5 µg/mL (≈ 12.2 µM) | 5 µg/mL (≈ 12.2 µM) | 12.5 µg/mL (≈ 30.6 µM) | 5 µg/mL (≈ 12.2 µM) | MIC (Enterobacter aerogenes; [20]): 5 µg/mL (≈ 12.2 µM); MIC (E. cloacae; E. cloacae strain T629): 5 µg/mL (≈ 12.2 µM); MIC (E. cloacae; E. cloacae strain T763): 5 µg/mL (≈ 12.2 µM); MIC (Proteus mirabilis; Proteus mirabilis strain BS66): 5.0 µg/mL (≈ 12.2 µM); MIC (Proteus mirabilis; Proteus mirabilis strain CT13): 5.0 µg/mL (≈ 12.2 µM); MIC (Proteus mirabilis; [21]): 5 µg/mL (≈ 12.2 µM); MIC (Proteus mirabilis; Proteus mirabilis strain T251): 5.0 µg/mL (≈ 12.2 µM); MIC (P. morganii; [22]): 5 µg/mL (≈ 12.2 µM); MIC (P. morganii; P. morganii strain DU718): 5.0 µg/mL (≈ 12.2 µM); MIC (P. vulgaris; P. vulgaris strain C): < 0.5 µg/mL; MIC (P. vulgaris; P. vulgaris strain I): 5 µg/mL (≈ 12.2 µM); MIC (P. vulgaris; P. vulgaris strain K): 12.5 µg/mL (≈ 30.6 µM); MIC (P. rettgeri; P. rettgeri strain B): 5 µg/mL (≈ 12.2 µM); MIC (P. rettgeri; P. rettgeri strain I): 5 µg/mL (≈ 12.2 µM); MIC (P. rettgeri; P. rettgeri strain R110): 5 µg/mL (≈ 12.2 µM); MIC (Streptococcus faecalis; [23]): > 500 µg/mL; MIC (Streptococcus faecalis; [24]): > 500 µg/mL; MIC (Streptococcus faecalis; [25]): > 500 µg/mL
2 | COC1(NC(=O)C(C(=O)O)c2ccsc2)C(=O)N2C(C(=O)O)C(C)(C)SC21 [6-methoxy ticarcillin, 6-β-(D,L-2-Carboxy-2-thien-3'-ylacetamido)-6-α-methoxypenicillanic acid] | 2.5 µg/mL (≈ 6.03 µM) | 5 µg/mL (≈ 12.1 µM) | 5 µg/mL (≈ 12.1 µM) | 5 µg/mL (≈ 12.1 µM) | 5 µg/mL (≈ 12.1 µM) | 2.5 µg/mL (≈ 6.03 µM) | 5 µg/mL (≈ 12.1 µM) | 5 µg/mL (≈ 12.1 µM) | 5 µg/mL (≈ 12.1 µM) | 5 µg/mL (≈ 12.1 µM) | 2.5 µg/mL (≈ 6.03 µM) | 5 µg/mL (≈ 12.1 µM) | 5 µg/mL (≈ 12.1 µM) | 5 µg/mL (≈ 12.1 µM) | 2.5 µg/mL (≈ 6.03 µM) | 5 µg/mL (≈ 12.1 µM) | 2.5 µg/mL (≈ 6.03 µM) | 2.5 µg/mL (≈ 6.03 µM) | 2.5 µg/mL (≈ 6.03 µM) | 1.2 µg/mL (≈ 2.9 µM) | MIC (Enterobacter aerogenes; [20]): 2.5 µg/mL (≈ 6.03 µM); MIC (E. cloacae; E. cloacae strain T629): 2.5 µg/mL (≈ 6.03 µM); MIC (E. cloacae; E. cloacae strain T763): 1.2 µg/mL (≈ 2.9 µM); MIC (Proteus mirabilis; Proteus mirabilis strain BS66): 2.5 µg/mL (≈ 6.03 µM); MIC (Proteus mirabilis; Proteus mirabilis strain CT13): 2.5 µg/mL (≈ 6.03 µM); MIC (Proteus mirabilis; [21]): 2.5 µg/mL (≈ 6.03 µM); MIC (Proteus mirabilis; Proteus mirabilis strain T251): 2.5 µg/mL (≈ 6.03 µM); MIC (P. morganii; [22]): 2.5 µg/mL (≈ 6.03 µM); MIC (P. morganii; P. morganii strain DU718): 2.5 µg/mL (≈ 6.03 µM); MIC (P. vulgaris; P. vulgaris strain C): < 0.5 µg/mL; MIC (P. vulgaris; P. vulgaris strain I): 2.5 µg/mL (≈ 6.03 µM); MIC (P. vulgaris; P. vulgaris strain K): 5 µg/mL (≈ 12.1 µM); MIC (P. rettgeri; P. rettgeri strain B): 2.5 µg/mL (≈ 6.03 µM); MIC (P. rettgeri; P. rettgeri strain I): 5 µg/mL (≈ 12.1 µM); MIC (P. rettgeri; P. rettgeri strain R110): 2.5 µg/mL (≈ 6.03 µM); MIC (Streptococcus faecalis; [23]): > 500 µg/mL; MIC (Streptococcus faecalis; [24]): > 500 µg/mL; MIC (Streptococcus faecalis; [25]): > 500 µg/mL; activity relative to the corresponding phenyl compound (6-methoxy carbenicillin) [1]: consistently two-fold more active

Source: patent US4048320A, “Penicillins” (Beecham Group Limited, priority 1975, dated 1977)
